Assay results as given in US10865216B2, “Tricyclic Gyrase inhibitors” (MERCK SHARP & DOHME CORP., priority 2012, dated 2020).
Converted amounts (≈) assume the structure as drawn.

System: S. aureus ATCC 13709
Assay: MIC, S. aureus ATCC 13709
Type: cell-based
Details: S. aureus; Alamar Blue read after overnight incubation at 35° C.

Compound | MIC Sa
CNc1cc(F)cc2c1[nH]c1nc(Oc3cnc4cccnc4c3)nc(N3CC4(CCC4N)C3)c12 (centres unmarked) [Compound 4.045] | ≤0.5 µg/mL
CNc1cc(F)cc2c1[nH]c1nc(Oc3cnc(C)nc3)nc(N3CC4C(N)C4C3)c12 (centres unmarked) [Compound 4.073] | ≤0.5 µg/mL
CNc1cc(F)cc2c1[nH]c1nc(Oc3cnc(C)nc3)nc(N3C[C@@H]4CCN[C@@H]4C3)c12 [Compound 4.103] | ≤0.5 µg/mL
CNc1cc(F)cc2c1[nH]c1nc(Oc3cnc(C)nc3)nc(N3CCC4(CCC4N)C3)c12 (centres unmarked) [Compound 4.117] | ≤0.5 µg/mL

Same assay, conditions: Staphylococcus aureus, ATCC13709, S. aureus; Alamar Blue read after overnight incubation at 35° C.; read-out: MIC Sa

Compound | MIC
CNc1cc(F)c(C)c2c1[nH]c1nc(Oc3cnc(C)nc3)nc(N3CC4C[C@@H]3C[C@H]4N)c12 [Compound 6.280] | ≤ 0.5 µg/mL
CNc1cc(F)cc2c1[nH]c1nc(Oc3ccc(C#N)nc3)nc(N3C[C@H]4C[C@@H]3C[C@H]4N)c12 [Compound 4.434] | ≤ 0.5 µg/mL
CNc1cc(F)c(C)c2c1[nH]c1nc(Oc3cnc(C)nc3)nc(N3C[C@H](N)C4(CC4)C3)c12 [Compound 6.290] | ≤ 0.5 µg/mL

Same assay, conditions: Staphylococcus aureus, ATCC13709, Table 10; Sa = S. aureus; read-out: Sa MIC

Compound | MIC
CNc1cc(F)c(C)c2c1[nH]c1nc(Oc3cnc(C)nc3)nc(N3CC4C[C@@H]3C[C@H]4N)c12 [Compound 6.280] | ≤ 0.5 µg/mL
CNc1cc(F)cc2c1[nH]c1nc(Oc3ccc(C#N)nc3)nc(N3C[C@H]4C[C@@H]3C[C@H]4N)c12 [Compound 4.434] | ≤ 0.5 µg/mL
CNc1cc(F)c(C)c2c1[nH]c1nc(Oc3cnc(C)nc3)nc(N3C[C@H](N)C4(CC4)C3)c12 [Compound 6.290] | ≤ 0.5 µg/mL

Same assay, conditions: Table 10; Sa = S. aureus

Compound | Sa MIC
CNc1cc(F)cc2c1[nH]c1nc(Oc3cnc4cccnc4c3)nc(N3CC4(CCC4N)C3)c12 (centres unmarked) [Compound 4.045] | ≤0.5 µg/mL
CNc1cc(F)cc2c1[nH]c1nc(Oc3cnc(C)nc3)nc(N3CC4C(N)C4C3)c12 (centres unmarked) [Compound 4.073] | ≤0.5 µg/mL
CNc1cc(F)cc2c1[nH]c1nc(Oc3cnc(C)nc3)nc(N3C[C@@H]4CCN[C@@H]4C3)c12 [Compound 4.103] | ≤0.5 µg/mL
CNc1cc(F)cc2c1[nH]c1nc(Oc3cnc(C)nc3)nc(N3CCC4(CCC4N)C3)c12 (centres unmarked) [Compound 4.117] | ≤0.5 µg/mL

System: Y. pestis CO92 pgm-
Assay: not given
Type: cell-based
Details: Table 10

Compound | Yp MIC
CNc1cc(F)cc2c1[nH]c1nc(Oc3cnc4cccnc4c3)nc(N3CC4(CCC4N)C3)c12 (centres unmarked) [Compound 4.045] | ≤0.5 µg/mL
CNc1cc(F)cc2c1[nH]c1nc(Oc3cnc(C)nc3)nc(N3CC4C(N)C4C3)c12 (centres unmarked) [Compound 4.073] | ≤0.5 µg/mL
CNc1cc(F)cc2c1[nH]c1nc(Oc3cnc(C)nc3)nc(N3C[C@@H]4CCN[C@@H]4C3)c12 [Compound 4.103] | ≤0.5 µg/mL
CNc1cc(F)cc2c1[nH]c1nc(Oc3cnc(C)nc3)nc(N3CCC4(CCC4N)C3)c12 (centres unmarked) [Compound 4.117] | ≤0.5 µg/mL

System: E. coli ATCC 25922
Assay: MIC, E. coli ATCC 25922
Type: cell-based
Details: E. coli; Alamar Blue read after overnight incubation at 35° C.

Compound | MIC Ec
CNc1cc(F)cc2c1[nH]c1nc(Oc3cnc4cccnc4c3)nc(N3CC4(CCC4N)C3)c12 (centres unmarked) [Compound 4.045] | ≤0.5 µg/mL
CNc1cc(F)cc2c1[nH]c1nc(Oc3cnc(C)nc3)nc(N3CC4C(N)C4C3)c12 (centres unmarked) [Compound 4.073] | ≤0.5 µg/mL
CNc1cc(F)cc2c1[nH]c1nc(Oc3cnc(C)nc3)nc(N3C[C@@H]4CCN[C@@H]4C3)c12 [Compound 4.103] | ≤0.5 µg/mL
CNc1cc(F)cc2c1[nH]c1nc(Oc3cnc(C)nc3)nc(N3CCC4(CCC4N)C3)c12 (centres unmarked) [Compound 4.117] | ≤0.5 µg/mL

Same assay, conditions: Escherichia coli, ATCC25922, E. coli; Alamar Blue read after overnight incubation at 35° C.; read-out: MIC Ec

Compound | MIC
CNc1cc(F)c(C)c2c1[nH]c1nc(Oc3cnc(C)nc3)nc(N3CC4C[C@@H]3C[C@H]4N)c12 [Compound 6.280] | ≤ 0.5 µg/mL
CNc1cc(F)cc2c1[nH]c1nc(Oc3ccc(C#N)nc3)nc(N3C[C@H]4C[C@@H]3C[C@H]4N)c12 [Compound 4.434] | ≤ 0.5 µg/mL
CNc1cc(F)c(C)c2c1[nH]c1nc(Oc3cnc(C)nc3)nc(N3C[C@H](N)C4(CC4)C3)c12 [Compound 6.290] | ≤ 0.5 µg/mL

Same assay, conditions: Escherichia coli, ATCC25922, Table 10; Ec = E. coli, strain not stated; read-out: Ec MIC

Compound | MIC
CNc1cc(F)c(C)c2c1[nH]c1nc(Oc3cnc(C)nc3)nc(N3CC4C[C@@H]3C[C@H]4N)c12 [Compound 6.280] | ≤ 0.5 µg/mL
CNc1cc(F)cc2c1[nH]c1nc(Oc3ccc(C#N)nc3)nc(N3C[C@H]4C[C@@H]3C[C@H]4N)c12 [Compound 4.434] | ≤ 0.5 µg/mL
CNc1cc(F)c(C)c2c1[nH]c1nc(Oc3cnc(C)nc3)nc(N3C[C@H](N)C4(CC4)C3)c12 [Compound 6.290] | ≤ 0.5 µg/mL

Same assay, conditions: Table 10; Ec = E. coli, strain not stated

Compound | Ec MIC
CNc1cc(F)cc2c1[nH]c1nc(Oc3cnc4cccnc4c3)nc(N3CC4(CCC4N)C3)c12 (centres unmarked) [Compound 4.045] | ≤0.5 µg/mL
CNc1cc(F)cc2c1[nH]c1nc(Oc3cnc(C)nc3)nc(N3CC4C(N)C4C3)c12 (centres unmarked) [Compound 4.073] | ≤0.5 µg/mL
CNc1cc(F)cc2c1[nH]c1nc(Oc3cnc(C)nc3)nc(N3C[C@@H]4CCN[C@@H]4C3)c12 [Compound 4.103] | ≤0.5 µg/mL
CNc1cc(F)cc2c1[nH]c1nc(Oc3cnc(C)nc3)nc(N3CCC4(CCC4N)C3)c12 (centres unmarked) [Compound 4.117] | ≤0.5 µg/mL

System: F. tularensis holarctica LVS
Assay: microbe, parasite or virus in culture
Type: cell-based
Details: Table 10; Ft = F. tularensis, strain not stated

Compound | Ft MIC
CNc1cc(F)cc2c1[nH]c1nc(Oc3cnc4cccnc4c3)nc(N3CC4(CCC4N)C3)c12 (centres unmarked) [Compound 4.045] | 2 µg/mL
CNc1cc(F)cc2c1[nH]c1nc(Oc3cnc(C)nc3)nc(N3CC4C(N)C4C3)c12 (centres unmarked) [Compound 4.073] | 1 µg/mL
CNc1cc(F)cc2c1[nH]c1nc(Oc3cnc(C)nc3)nc(N3C[C@@H]4CCN[C@@H]4C3)c12 [Compound 4.103] | 1 µg/mL
CNc1cc(F)cc2c1[nH]c1nc(Oc3cnc(C)nc3)nc(N3CCC4(CCC4N)C3)c12 (centres unmarked) [Compound 4.117] | 1 µg/mL

System: S. pneumoniae ATCC 51916
Assay: MIC, S. pneumoniae ATCC 51916
Type: cell-based
Details: Streptococcus pneumoniae, ATCC51916; Table 10; Spn = S. pneumoniae

Compound | MIC
CNc1cc(F)c(C)c2c1[nH]c1nc(Oc3cnc(C)nc3)nc(N3CC4C[C@@H]3C[C@H]4N)c12 [Compound 6.280] | ≤ 0.5 µg/mL
CNc1cc(F)cc2c1[nH]c1nc(Oc3ccc(C#N)nc3)nc(N3C[C@H]4C[C@@H]3C[C@H]4N)c12 [Compound 4.434] | ≤ 0.5 µg/mL
CNc1cc(F)c(C)c2c1[nH]c1nc(Oc3cnc(C)nc3)nc(N3C[C@H](N)C4(CC4)C3)c12 [Compound 6.290] | ≤ 0.5 µg/mL

Same assay, conditions: Table 10; Spn = S. pneumoniae

Compound | Spn MIC
CNc1cc(F)cc2c1[nH]c1nc(Oc3cnc4cccnc4c3)nc(N3CC4(CCC4N)C3)c12 (centres unmarked) [Compound 4.045] | ≤0.5 µg/mL
CNc1cc(F)cc2c1[nH]c1nc(Oc3cnc(C)nc3)nc(N3CC4C(N)C4C3)c12 (centres unmarked) [Compound 4.073] | ≤0.5 µg/mL
CNc1cc(F)cc2c1[nH]c1nc(Oc3cnc(C)nc3)nc(N3C[C@@H]4CCN[C@@H]4C3)c12 [Compound 4.103] | ≤0.5 µg/mL
CNc1cc(F)cc2c1[nH]c1nc(Oc3cnc(C)nc3)nc(N3CCC4(CCC4N)C3)c12 (centres unmarked) [Compound 4.117] | ≤0.5 µg/mL

System: P. aeruginosa ATCC 15692
Assay: MIC, P. aeruginosa ATCC 15692
Type: cell-based
Details: Pseudomonas aeruginosa, ATCC15692; Table 10; Pa = P. aeruginosa

Compound | MIC
CNc1cc(F)c(C)c2c1[nH]c1nc(Oc3cnc(C)nc3)nc(N3CC4C[C@@H]3C[C@H]4N)c12 [Compound 6.280] | 1 µg/mL (≈ 2.23 µM)
CNc1cc(F)cc2c1[nH]c1nc(Oc3ccc(C#N)nc3)nc(N3C[C@H]4C[C@@H]3C[C@H]4N)c12 [Compound 4.434] | 1 µg/mL (≈ 2.25 µM)
CNc1cc(F)c(C)c2c1[nH]c1nc(Oc3cnc(C)nc3)nc(N3C[C@H](N)C4(CC4)C3)c12 [Compound 6.290] | 2 µg/mL (≈ 4.46 µM)

Same assay, conditions: Table 10; Pa = P. aeruginosa

Compound | Pa MIC
CNc1cc(F)cc2c1[nH]c1nc(Oc3cnc4cccnc4c3)nc(N3CC4(CCC4N)C3)c12 (centres unmarked) [Compound 4.045] | 4 µg/mL
CNc1cc(F)cc2c1[nH]c1nc(Oc3cnc(C)nc3)nc(N3CC4C(N)C4C3)c12 (centres unmarked) [Compound 4.073] | 4 µg/mL
CNc1cc(F)cc2c1[nH]c1nc(Oc3cnc(C)nc3)nc(N3C[C@@H]4CCN[C@@H]4C3)c12 [Compound 4.103] | 2 µg/mL
CNc1cc(F)cc2c1[nH]c1nc(Oc3cnc(C)nc3)nc(N3CCC4(CCC4N)C3)c12 (centres unmarked) [Compound 4.117] | 1 µg/mL

System: K. pneumoniae ATCC 700603
Assay: MIC, K. pneumoniae ATCC 700603
Type: cell-based
Details: Klebsiella pneumoniae, ATCC700603; Table 10; Kpn = K. pneumoniae

Compound | MIC
CNc1cc(F)c(C)c2c1[nH]c1nc(Oc3cnc(C)nc3)nc(N3CC4C[C@@H]3C[C@H]4N)c12 [Compound 6.280] | 2 µg/mL (≈ 4.46 µM)
CNc1cc(F)cc2c1[nH]c1nc(Oc3ccc(C#N)nc3)nc(N3C[C@H]4C[C@@H]3C[C@H]4N)c12 [Compound 4.434] | 1 µg/mL (≈ 2.25 µM)
CNc1cc(F)c(C)c2c1[nH]c1nc(Oc3cnc(C)nc3)nc(N3C[C@H](N)C4(CC4)C3)c12 [Compound 6.290] | 2 µg/mL (≈ 4.46 µM)

Same assay, conditions: Table 10; Kpn = K. pneumoniae

Compound | Kpn MIC
CNc1cc(F)cc2c1[nH]c1nc(Oc3cnc4cccnc4c3)nc(N3CC4(CCC4N)C3)c12 (centres unmarked) [Compound 4.045] | 8 µg/mL
CNc1cc(F)cc2c1[nH]c1nc(Oc3cnc(C)nc3)nc(N3CC4C(N)C4C3)c12 (centres unmarked) [Compound 4.073] | 2 µg/mL
CNc1cc(F)cc2c1[nH]c1nc(Oc3cnc(C)nc3)nc(N3C[C@@H]4CCN[C@@H]4C3)c12 [Compound 4.103] | 2 µg/mL
CNc1cc(F)cc2c1[nH]c1nc(Oc3cnc(C)nc3)nc(N3CCC4(CCC4N)C3)c12 (centres unmarked) [Compound 4.117] | 2 µg/mL

System: A. baumannii ATCC 19606
Assay: MIC, A. baumannii ATCC 19606
Type: cell-based
Details: Acinetobacter baumannii, ATCC19606; Table 10; Ab = A. baumannii, strain not stated

Compound | MIC
CNc1cc(F)c(C)c2c1[nH]c1nc(Oc3cnc(C)nc3)nc(N3CC4C[C@@H]3C[C@H]4N)c12 [Compound 6.280] | ≤ 0.5 µg/mL
CNc1cc(F)cc2c1[nH]c1nc(Oc3ccc(C#N)nc3)nc(N3C[C@H]4C[C@@H]3C[C@H]4N)c12 [Compound 4.434] | ≤ 0.5 µg/mL
CNc1cc(F)c(C)c2c1[nH]c1nc(Oc3cnc(C)nc3)nc(N3C[C@H](N)C4(CC4)C3)c12 [Compound 6.290] | ≤ 0.5 µg/mL

Same assay, conditions: Table 10; Ab = A. baumannii, strain not stated

Compound | Ab MIC
CNc1cc(F)cc2c1[nH]c1nc(Oc3cnc4cccnc4c3)nc(N3CC4(CCC4N)C3)c12 (centres unmarked) [Compound 4.045] | ≤0.5 µg/mL
CNc1cc(F)cc2c1[nH]c1nc(Oc3cnc(C)nc3)nc(N3CC4C(N)C4C3)c12 (centres unmarked) [Compound 4.073] | ≤0.5 µg/mL
CNc1cc(F)cc2c1[nH]c1nc(Oc3cnc(C)nc3)nc(N3C[C@@H]4CCN[C@@H]4C3)c12 [Compound 4.103] | ≤0.5 µg/mL
CNc1cc(F)cc2c1[nH]c1nc(Oc3cnc(C)nc3)nc(N3CCC4(CCC4N)C3)c12 (centres unmarked) [Compound 4.117] | ≤0.5 µg/mL

System: B. thailandensis ATCC E264
Assay: microbe, parasite or virus in culture
Type: cell-based
Details: not given

Compound | Bt MIC
CNc1cc(F)cc2c1[nH]c1nc(Oc3cnc4cccnc4c3)nc(N3CC4(CCC4N)C3)c12 (centres unmarked) [Compound 4.045] | 1 µg/mL
CNc1cc(F)cc2c1[nH]c1nc(Oc3cnc(C)nc3)nc(N3CC4C(N)C4C3)c12 (centres unmarked) [Compound 4.073] | ≤0.5 µg/mL
CNc1cc(F)cc2c1[nH]c1nc(Oc3cnc(C)nc3)nc(N3C[C@@H]4CCN[C@@H]4C3)c12 [Compound 4.103] | ≤0.5 µg/mL
CNc1cc(F)cc2c1[nH]c1nc(Oc3cnc(C)nc3)nc(N3CCC4(CCC4N)C3)c12 (centres unmarked) [Compound 4.117] | ≤0.5 µg/mL
